Data set [1] has as its target Beta-1 adrenergic receptor (Homo sapiens, UniProt P08588). Description: Agonist activity at beta-1 adrenoceptor (unknown origin).
Data set [2] can be described thus: Intrinsic clearance in human liver microsomes assessed as glucuronidation in absence of NADPH and presence of microsomal activator Brij58 and UDPGA.
Data set [3] in a line: Drug metabolism of the compound in human liver microsomes assessed as glucuronidation in absence of NADPH and presence of microsomal activator Brij58 and UDPGA.
The target in data set [4] is Muscarinic acetylcholine receptor M3 (Homo sapiens, UniProt P20309). The data set can be described thus: Displacement of [3H]-N-methyl scopolamine from human cloned muscarinic M3 receptor.
Chain of Muscarinic acetylcholine receptor M3 (P20309 whole entry): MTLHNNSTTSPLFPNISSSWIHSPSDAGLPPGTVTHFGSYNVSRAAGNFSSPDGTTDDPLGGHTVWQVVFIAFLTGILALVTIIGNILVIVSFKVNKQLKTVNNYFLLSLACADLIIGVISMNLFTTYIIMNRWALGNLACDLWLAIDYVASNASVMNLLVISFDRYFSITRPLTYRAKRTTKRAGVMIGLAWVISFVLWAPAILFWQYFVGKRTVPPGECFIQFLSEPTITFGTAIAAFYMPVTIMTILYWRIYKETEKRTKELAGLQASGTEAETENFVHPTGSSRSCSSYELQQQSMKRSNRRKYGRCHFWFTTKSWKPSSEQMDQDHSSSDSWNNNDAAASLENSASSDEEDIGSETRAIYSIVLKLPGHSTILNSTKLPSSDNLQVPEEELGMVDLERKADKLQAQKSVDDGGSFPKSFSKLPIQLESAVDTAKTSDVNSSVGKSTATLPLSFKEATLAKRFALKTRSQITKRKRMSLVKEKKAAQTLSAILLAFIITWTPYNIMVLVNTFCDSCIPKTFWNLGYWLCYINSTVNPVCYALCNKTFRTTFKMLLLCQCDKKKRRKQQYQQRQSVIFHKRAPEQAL
Data set [5] has as its target Beta-2 adrenergic receptor (Homo sapiens, UniProt P07550). Description: Agonist activity at human beta-2 adrenoceptor expressed in CHO cells assessed as stimulation of intracellular cAMP production. It is filed as functional, cell-based.
Data set [6] can be described thus: Therapeutic index, ratio of cardiovascular toxicity in dog to bronchodilatory activity in intratracheally dosed dog. The class given is organism-based, Canis lupus familiaris, Trachea. As to conditions: in vivo, inhaled or intranasal, read-out: TI.

Chain of Beta-2 adrenergic receptor (P07550 whole entry): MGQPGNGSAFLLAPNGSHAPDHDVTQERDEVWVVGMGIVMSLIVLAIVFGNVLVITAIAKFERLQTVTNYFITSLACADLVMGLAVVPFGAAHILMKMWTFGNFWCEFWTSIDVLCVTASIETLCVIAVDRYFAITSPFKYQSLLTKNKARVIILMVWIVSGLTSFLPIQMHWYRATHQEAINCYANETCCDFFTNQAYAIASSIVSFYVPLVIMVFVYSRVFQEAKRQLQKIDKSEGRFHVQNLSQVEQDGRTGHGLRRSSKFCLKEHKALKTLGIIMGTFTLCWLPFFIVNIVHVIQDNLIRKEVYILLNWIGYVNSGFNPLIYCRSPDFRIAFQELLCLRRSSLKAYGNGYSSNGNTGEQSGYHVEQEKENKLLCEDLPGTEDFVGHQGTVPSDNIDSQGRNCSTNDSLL
Chain of Beta-1 adrenergic receptor (P08588 whole entry): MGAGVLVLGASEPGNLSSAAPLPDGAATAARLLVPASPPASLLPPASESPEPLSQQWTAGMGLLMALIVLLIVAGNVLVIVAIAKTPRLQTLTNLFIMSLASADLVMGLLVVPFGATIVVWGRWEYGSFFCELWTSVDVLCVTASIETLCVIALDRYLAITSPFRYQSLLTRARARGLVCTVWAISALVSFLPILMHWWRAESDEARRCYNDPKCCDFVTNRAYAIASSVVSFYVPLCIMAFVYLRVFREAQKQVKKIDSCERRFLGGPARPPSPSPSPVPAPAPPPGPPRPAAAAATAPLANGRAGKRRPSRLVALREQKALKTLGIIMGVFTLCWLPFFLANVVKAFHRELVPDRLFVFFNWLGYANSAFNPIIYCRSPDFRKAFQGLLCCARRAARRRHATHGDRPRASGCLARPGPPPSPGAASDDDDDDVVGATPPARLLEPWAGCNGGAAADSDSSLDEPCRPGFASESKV

As to `CS(=O)(=O)Nc1cc([C@@H](O)CNCCCCCCCCCCCN2CCC(OC(=O)Nc3ccccc3-c3ccc(O)c(Cl)c3)CC2)ccc1O`, the EC50 was greater than 10 µM in data set [1] and 195 nM in data set [5]. Moreover, the microsomal CLint in data set [2] worked out at 45 µL/min/mg; in data set [3] it was 16 µL/min/mg. This compound returned a Ki in data set [4] of 4.4 nM.

For `CS(=O)(=O)Nc1cc([C@@H](O)CNCCCCCCCCCN2CCC(OC(=O)Nc3ccccc3-c3cc(F)c(O)cc3F)CC2)ccc1O`, the EC50 was greater than 10 µM in data set [1] and 22 nM in data set [5]. The microsomal CLint in data set [2] amounted to 13 µL/min/mg; in data set [3], 90 µL/min/mg. The compound also displayed a Ki in data set [4] of 8.3 nM.

For the compound `Cc1ccc(NC(=O)OC2CCN(CCCCCCCCCNC[C@H](O)c3ccc(O)c(NS(C)(=O)=O)c3)CC2)c(-c2ccc(O)c(Cl)c2)c1`, in data set [1], the EC50 was greater than 10 µM. In addition, the intrinsic clearance (microsomal CLint) was 22 µL/min/mg in data set [2] and 19 µL/min/mg in data set [3]. For the same compound, in data set [4], the Ki came to 4.8 nM.

On to `CS(=O)(=O)Nc1cc([C@@H](O)CNCCCCCCCCCN2CCC(OC(=O)Nc3ccccc3-c3cc(O)cc(F)c3)CC2)ccc1O`, for which the EC50 in data set [1] was greater than 10 µM; in data set [5], 65 nM. The values for the microsomal CLint in data set [2] and in data set [3] were 28 µL/min/mg and 4 µL/min/mg, respectively. In data set [4], this compound yielded a Ki of 76 nM.

With `CS(=O)(=O)Nc1cc([C@@H](O)CNCCCCCCCCCN2C3CCC2CC(OC(=O)Nc2ccccc2-c2ccc(O)c(Cl)c2)C3)ccc1O` (stereo partly specified), the EC50 in data set [1] is greater than 10 µM; in data set [5], 23 nM. Also, the microsomal CLint in data set [2] stood at 8 µL/min/mg; in data set [3], 7.8 µL/min/mg. The compound also showed a Ki in data set [4] of 8.9 nM.

Take `CS(=O)(=O)Nc1cc([C@@H](O)CNCCCCCCCCCN2CCC(OC(=O)Nc3ccccc3-c3ccccc3O)CC2)ccc1O`: the values for the EC50 in data set [1] and in data set [5] were greater than 10 µM and 90 nM, respectively. In addition, the microsomal CLint was 17 µL/min/mg in data set [2] and less than 2 µL/min/mg in data set [3]. This compound yielded a Ki in data set [4] of 18 nM.

Turning to `OCc1cc(C(O)CNCCCCCCOCCCCc2ccccc2)ccc1O` (stereo unspecified) [SALMETEROL], the selectivity ratio in data set [6] is 3.

In data set [1], `CS(=O)(=O)Nc1cc([C@@H](O)CNCCCCCCCCCN2CCC(OC(=O)Nc3ccccc3-c3ccc(F)cc3O)CC2)ccc1O` gave an EC50 greater than 10 µM. For the same compound, the results for the intrinsic metabolic clearance (microsomal CLint) in data set [2] and in data set [3] were 8.8 µL/min/mg and less than 2 µL/min/mg, respectively. The compound further gave a Ki in data set [4] of 26 nM.

With `CS(=O)(=O)Nc1cc([C@@H](O)CNCCc2ccc(OCCCN3CCC(OC(=O)Nc4ccccc4-c4ccc(O)c(Cl)c4)CC3)cc2)ccc1O`, the results for the EC50 in data set [1] and in data set [5] were greater than 10 µM and 13 nM, respectively. The microsomal CLint amounted to 33 µL/min/mg in data set [2] and 29 µL/min/mg in data set [3]. For the same compound, the affinity in data set [4] corresponds to a Ki of 3.1 nM.

As for `CS(=O)(=O)Nc1cc([C@@H](O)CNCCCCCCCCCN2CCC(OC(=O)Nc3ccccc3-c3cccc(O)c3)CC2)ccc1O`, the EC50 in data set [1] is greater than 10 µM; in data set [5], 129 nM. In addition, the intrinsic metabolic clearance (microsomal CLint) in data set [2] was 26 µL/min/mg; in data set [3] it was less than 3.5 µL/min/mg. In addition, the inhibition constant Ki in data set [4] was found to be 3.7 nM.

As for `CS(=O)(=O)Nc1cc([C@@H](O)CNCCCCCCCCCN2CCC(OC(=O)Nc3cc(F)ccc3-c3ccc(O)c(Cl)c3)CC2)ccc1O`, the EC50 is greater than 10 µM in data set [1] and 57 nM in data set [5]. Further, the values for the intrinsic metabolic clearance (microsomal CLint) in data set [2] and in data set [3] were 15 µL/min/mg and 6 µL/min/mg, respectively. This compound returned a Ki in data set [4] of 4.4 nM.

For `O=C(Nc1ccccc1-c1ccccc1)OC1CCN(CCCCCCCCCNC[C@H](O)c2ccc(O)c3[nH]c(=O)ccc23)CC1`, the 50% effective concentration (EC50) in data set [1] is greater than 10 µM.

Consider `CS(=O)(=O)Nc1cc([C@@H](O)CNCCCCCCCCCN2CCC(OC(=O)Nc3ccccc3-c3ccc(O)c(F)c3)CC2)ccc1O`, for which the values for the EC50 in data set [1] and in data set [5] were greater than 10 µM and 26 nM, respectively. Further, the microsomal CLint is 16 µL/min/mg in data set [2] and 30 µL/min/mg in data set [3]. For the same compound, the affinity in data set [4], expressed as Ki, was 5 nM.

Take `CS(=O)(=O)Nc1cc([C@@H](O)CNCCCCCCCCCN2CCC(OC(=O)Nc3ccccc3-c3ccccc3)CC2)ccc1O`: the EC50 was greater than 10 µM in data set [1] and 74 nM in data set [5]. Besides, the microsomal CLint in data set [2] was 40 µL/min/mg; in data set [3], less than 2 µL/min/mg. The compound further showed a Ki in data set [4] of 0.39 nM.

Take `CS(=O)(=O)Nc1cc([C@@H](O)CNCCCCCCCCCN2CCC(OC(=O)Nc3ccc(F)cc3-c3ccc(O)c(Cl)c3)CC2)ccc1O`: the EC50 in data set [1] is greater than 10 µM; in data set [5], 23 nM. In addition, the microsomal CLint was determined as 25 µL/min/mg in data set [2] and 17 µL/min/mg in data set [3]. The compound also had a Ki in data set [4] of 1.1 nM.

In the case of `CS(=O)(=O)Nc1cc([C@@H](O)CNCCc2ccc(OCCN3CCC(OC(=O)Nc4ccccc4-c4ccc(O)c(Cl)c4)CC3)cc2)ccc1O`, the EC50 in data set [1] was greater than 10 µM. Moreover, the results for the microsomal CLint in data set [2] and in data set [3] were 74 µL/min/mg and 48 µL/min/mg, respectively. For the same compound, the affinity in data set [4], expressed as Ki, was 36 nM.

For the compound `Cc1cc(C)c(NC(=O)OC2CCN(CCCCCCCCCNC[C@H](O)c3ccc(O)c(NS(C)(=O)=O)c3)CC2)c(-c2ccc(O)c(Cl)c2)c1`, the EC50 was greater than 10 µM in data set [1] and 36 nM in data set [5]. Besides, the intrinsic clearance (microsomal CLint) is 79 µL/min/mg in data set [2] and 32 µL/min/mg in data set [3]. In data set [4], this compound returned a Ki of 38 nM.

`CS(=O)(=O)Nc1cc([C@@H](O)CNCCCCCCCCCN2C[C@H]3C[C@@]3(COC(=O)Nc3ccccc3-c3ccc(O)c(Cl)c3)C2)ccc1O`: the EC50 in data set [1] was greater than 10 µM; in data set [5] it was 17 nM. In addition, the values for the microsomal CLint in data set [2] and in data set [3] were 49 µL/min/mg and 28 µL/min/mg, respectively. The affinity in data set [4] corresponds to a Ki of 4.3 nM.

As for `CS(=O)(=O)Nc1cc([C@@H](O)CNCCCCCCCCCN2CCC(OC(=O)Nc3ccccc3-c3cc(F)cc(F)c3O)CC2)ccc1O`, the results for the EC50 in data set [1] and in data set [5] were greater than 10 µM and 102 nM, respectively. The values for the microsomal CLint in data set [2] and in data set [3] were 20 µL/min/mg and less than 3.5 µL/min/mg, respectively. Also, in data set [4], the Ki is 22 nM.

In the case of `CS(=O)(=O)Nc1cc([C@@H](O)CNCCCCCCCCCN2CCC(OC(=O)Nc3ccccc3-c3cccc(F)c3O)CC2)ccc1O`, in data set [1], the EC50 is greater than 10 µM. In addition, in data set [3], the microsomal CLint was less than 2 µL/min/mg. In addition, in data set [4], the affinity corresponds to a Ki of 10 nM.

On to `CS(=O)(=O)Nc1cc([C@@H](O)CNCCCCCCCCCN2CCC(OC(=O)Nc3ccccc3-c3ccc(O)cc3)CC2)ccc1O`, for which the concentration giving a half-maximal response (EC50) in data set [1] is greater than 10 µM; in data set [5], 26 nM. For the same compound, the microsomal CLint in data set [2] is 20 µL/min/mg; in data set [3] it was 4 µL/min/mg. In addition, in data set [4], the affinity, expressed as Ki, was 2.2 nM.

For the compound `CS(=O)(=O)Nc1cc([C@@H](O)CNCCCCCCCCCN2CC[C@@H](OC(=O)Nc3ccccc3-c3ccc(O)c(Cl)c3)C2)ccc1O`, the EC50 in data set [1] is greater than 10 µM; in data set [5], 24 nM. The microsomal CLint in data set [2] came out at 39 µL/min/mg; in data set [3] it was 51 µL/min/mg. The Ki in data set [4] came to 9.2 nM.

Take `CS(=O)(=O)Nc1cc([C@@H](O)CNCCCCCCCCCN2C[C@@H]3[C@@H](COC(=O)Nc4ccccc4-c4ccc(O)c(Cl)c4)[C@@H]3C2)ccc1O`: the results for the concentration giving a half-maximal response (EC50) in data set [1] and in data set [5] were greater than 10 µM and 42 nM, respectively. In addition, the microsomal CLint in data set [2] came out at 7 µL/min/mg; in data set [3], 13 µL/min/mg. Also, the Ki in data set [4] came to 1.3 nM.

Take `CS(=O)(=O)Nc1cc([C@@H](O)CNCCCCCCCCCCN2CCC(OC(=O)Nc3ccccc3-c3ccc(O)c(Cl)c3)CC2)ccc1O`: the EC50 in data set [1] is greater than 10 µM; in data set [5], 21 nM. Also, the microsomal CLint in data set [2] amounted to 34 µL/min/mg; in data set [3], 22 µL/min/mg. The compound also displayed a Ki in data set [4] of 2 nM.

`CS(=O)(=O)Nc1cc([C@@H](O)CNCCCCCCCCCN2CCC(OC(=O)Nc3ccccc3-c3cc(C#N)ccc3O)CC2)ccc1O` returned an EC50 in data set [1] greater than 10 µM. Also, the intrinsic metabolic clearance (microsomal CLint) in data set [2] is 33 µL/min/mg; in data set [3], 3.7 µL/min/mg. For the same compound, in data set [4], the Ki is greater than 73 nM.

As for `CS(=O)(=O)Nc1cc([C@@H](O)CNCCCCCCCCN2CCC(OC(=O)Nc3ccccc3-c3ccc(O)c(Cl)c3)CC2)ccc1O`, the EC50 in data set [1] was greater than 10 µM; in data set [5] it was 20 nM. In addition, the microsomal CLint in data set [2] was found to be 17 µL/min/mg; in data set [3], 24 µL/min/mg. In data set [4], the affinity, expressed as Ki, was 1.1 nM.

As to `Cc1ccc(-c2ccc(O)c(Cl)c2)c(NC(=O)OC2CCN(CCCCCCCCCNC[C@H](O)c3ccc(O)c(NS(C)(=O)=O)c3)CC2)c1`, the figures for the EC50 in data set [1] and in data set [5] were greater than 10 µM and 14 nM, respectively. Further, the results for the microsomal CLint in data set [2] and in data set [3] were 29 µL/min/mg and 6 µL/min/mg, respectively. The same compound gave a Ki in data set [4] of 2 nM.
